Literature values, collected in patent publication US6417191B1, “Synergistic combinations of zidovudine, 1592U89 and 3TC” (GlaxoSmithKline, priority 1995, dated 2002).
Where two headings read alike, the source gives them in different places.

Legend:
[1] = plasma, patients, therapeutic doses of each drug as a single agent

Nc1ccn(C2CSC(CO)O2)c(=O)n1 (racemic) [BCH-189, 4-amino-1-(2-hydroxymethyl-1,3-oxathiolan-5-yl)-(1H)-pyrimidin-2-one]
activity against HIV (HIV): anti-HIV activity

Cc1cn([C@H]2C[C@H](N=[N+]=[N-])[C@@H](CO)O2)c(=O)[nH]c1=O [zidovudine, 3′-azido-3′-deoxythymidine]
Peak Level (in vivo): 5 µM
Trough Level (in vivo): 0.4 µM

Nc1ccn([C@@H]2CS[C@H](CO)O2)c(=O)n1 (single isomer, unassigned) [3TC]
Peak Level [1]: 9 µM
Trough Level [1]: 0.7 µM

Nc1nc(NC2CC2)c2ncn([C@H]3C=C[C@@H](CO)C3)c2n1 (relative stereo) [1592U89, (1S,4R)-cis-4-[2-amino-6-(cyclopropylamino)-9H-purin-9-yl]-2-cyclopentene-1-methanol]
activity against HIV (HIV): potent activity against HIV
Peak Level (in vivo): 3.5 µM
Trough Level (in vivo): 0.1 µM

Nc1nc(=O)n([C@@H]2CS[C@H](CO)O2)cc1F (relative stereo) [FTC, (2R,cis)-4-amino-5-fluoro-1-(2-hydroxymethyl-1,3-oxathiolan-5-yl)-(1H)-pyrimidin-2-one]
Peak Level (in vivo): 10 µM
Trough Level (in vivo): 0.5 µM
